Results from US20260315475A1 (priority 2023, published 2026).
Like-named read-outs stand apart in the source and are kept apart here.

Assays:
CYP2C19 = conditions: role: inhibitor; in vitro; cited from earlier work
[1] = dogs; cited from earlier work
[2] = pregnant rabbits, cited from earlier work
CYP2C8 = conditions: role: substrate; in vitro; cited from earlier work
CYP3A4 = conditions: role: substrate; in vitro; cited from earlier work
[3] = single oral dose, radiolabeled, healthy subjects; cited from earlier work
[4] = 275 mg/kg/day oral, cited from earlier work
ROCK2 = conditions: cited from earlier work
[5] = Embryo-fetal development studies in rats; type: in vivo; conditions: rat
Experimental: In the pilot study, maternal toxicity and embryo-fetal developmental effects were observed. Maternal toxicity (reduced body weight gain) occurred at 150 and 300 mg/kg/day doses. Increased post-implantation loss occurred at 50 and 300 mg/kg/day.

bacteria = conditions: in vitro; cited from earlier work
[6] = Safety and tolerability in the Phase I hepatic impairment study; type: in vivo, human
Description: The secondary objectives were: to evaluate the safety and tolerability of a single oral dose of belumosudil in participants with mild, moderate, or severe hepatic impairment, and in healthy participants with normal hepatic function; to assess the PK of the belumosudil metabolites following a single oral dose of belumosudil in participants with mild, moderate, or severe hepatic impairment compared to healthy participants with normal hepatic function. […]
The secondary/safety endpoints were: incidence and severity of adverse events (AEs), clinical laboratory parameters (hematology, clinical chemistry, coagulation, and urinalysis), 12-lead electrocardiogram (ECG) parameters, vital signs parameters, and physical examinations.
Treatment-emergent AEs (TEAEs) were summarized by severity and relationship to the investigational medicinal product (IMP). The frequency of TEAEs was summarized by Medical Dictionary for Regulatory Activities system organ class and preferred term, and hepatic function. Summary and frequency TEAE tables were presented for all causalities and for those considered related to the IMP.
Serum biochemistry, hematology, and coagulation data were summarized by hepatic function. In addition, all serum biochemistry, hematology, and urinalysis data outside the clinical reference ranges were listed by parameter and treatment. Vital signs and ECG data were summarized by hepatic function, together with changes from baseline.

[7] = cited from earlier work
[8] = 200 and 400 mg; cited from earlier work
[9] = in vivo; cited from earlier work
[10] = single dose, high-fat high-calorie meal vs fasted, healthy subjects; cited from earlier work
[11] = age 18 to 77 years, weight 38.6 to 143 kg, mild to moderate renal impairment; cited from earlier work
UGT1A9 = conditions: role: inhibitor; in vitro; cited from earlier work
UGT1A1 = conditions: role: inhibitor; in vitro; cited from earlier work
OATP1B1 = conditions: role: inhibitor; clinically relevant concentrations, in vitro; cited from earlier work
CYP2D6 = conditions: role: inhibitor; in vitro; cited from earlier work
pro-fibrotic signaling = conditions: in vitro; cited from earlier work
[12] = pregnant rats, cited from earlier work
ROCK1 = conditions: cited from earlier work
[13] = cited from earlier work; remark: listed apart in the source
P-gp = conditions: role: substrate; in vitro; cited from earlier work
[14] = system: human peripheral blood lymphocytes (HPBL); conditions: in vitro; cited from earlier work
[15] = moderate hepatic impairment group
[16] = healthy subjects, coadministered omeprazole
[17] = healthy subjects, coadministered rabeprazole
[18] = healthy subjects, coadministered rifampin

CC(C)NC(=O)COc1cccc(-c2nc(Nc3ccc4[nH]ncc4c3)c3ccccc3n2)c1 [belumosudil, 2-{3-[4-(1H-indazol-5-ylamino)-2-quinazolinyl]phenoxy}-N-(propan-2-yl) acetamide]
CYP2C19 inhibition (CYP2C19): inhibitor | dose with spermatozoa degeneration [1]: […] | doses with maternal toxicity (body weight loss and mortality) ([2]; oral): ≥ 125 mg/kg/day | doses with embryo-fetal effects ([2]; oral, spontaneous abortion, post-implantation loss, malformations, decreased fetal weight): ≥ 50 mg/kg/day | maternal exposure (AUC) causing embryo-fetal mortality and malformations vs patients ([2]; organogenesis): less than those in patients at the recommended dose | metabolism by CYP2C8 (CYP2C8): to a lesser extent | metabolism by CYP3A4 (CYP3A4): primarily metabolized | radioactivity recovered in feces [3]: 85% | radioactivity recovered in feces as unchanged [3]: 30% | radioactivity recovered in urine [3]: less than 5% | adverse findings in female rats (pre-/post-implantation loss, viable embryos) [4]: increased pre- or post-implantation loss and decreased number of viable embryos | fertility of treated males or females [4]: Fertility was reduced in both treated males or females | sperm findings ([4]; male rats): abnormal sperm findings (reduced motility, reduced count, and increased percentage of abnormal sperm) | testes/epididymis organ changes ([4]; male rats): reduced weight and degeneration | IC50 (ROCK2): […] | maternal exposure (AUC) multiple of human exposure with adverse developmental outcomes [5]: ≥ 3 times the human exposure | genotoxicity, bacterial mutagenicity (Ames) (bacteria): not genotoxic | 12-lead ECG parameters ([6]; individual participants): no clinically significant changes | vital signs parameters ([6]; individual participants): no clinically significant changes | number of SAEs [6, 15]: 1 | number of TEAEs [6, 15]: 2 TEAEs | participants reporting TEAEs ([6]; moderate hepatic impairment group, 1 participant): 12.5% | AEs related to study drug ([6]; single oral 200 mg): no reports of AEs related to study drug | deaths ([6]; single oral 200 mg): no reports of deaths | discontinuation due to an AE ([6]; single oral 200 mg): no participants discontinued due to an AE | clinical chemistry, hematology, coagulation, or urinalysis ([6]; throughout the study): no clinically significant changes | physical examinations ([6]; throughout the study): no clinically significant findings | effect of proton pump inhibitors on belumosudil exposure ([7]; coadministered proton pump inhibitors): decreases belumosudil exposure | effect of strong CYP3A inducers on belumosudil exposure ([7]; coadministered strong CYP3A inducers): decreases belumosudil exposure | effect of itraconazole on belumosudil exposure ([7]; healthy subjects, coadministered itraconazole): no clinically meaningful effect on belumosudil exposure | decrease in belumosudil AUC [7, 16]: 47% | decrease in belumosudil Cmax [7, 16]: 68% | decrease in belumosudil AUC [7, 17]: 80% | decrease in belumosudil Cmax [7, 17]: 87% | decrease in belumosudil AUC [7, 18]: 72% | decrease in belumosudil Cmax [7, 18]: 59% | dose proportionality of Cmax and AUC [8]: increased in an approximately proportional manner | activity in animal models of chronic GVHD [9]: demonstrates activity | increase in AUC with food [10]: 2 times | increase in Cmax with food [10]: 2.2 times | differences in belumosudil pharmacokinetics by age, sex, weight, renal impairment [11]: No clinically significant differences | UGT1A9 inhibition (UGT1A9): inhibitor | UGT1A1 inhibition (UGT1A1): inhibitor | OATP1B1 inhibition (OATP1B1): inhibits | CYP2D6 inhibition (CYP2D6): inhibitor | aberrant pro-fibrotic signaling (pro-fibrotic signaling): inhibits aberrant pro-fibrotic signaling | doses with fetal malformations ([12]; oral, pilot study, absence of anus and tail, omphalocele, dome shaped head): ≥ 50 mg/kg/day | maternal exposure (AUC) causing embryo-fetal mortality and malformations vs patients ([12]; organogenesis): less than those in patients at the recommended dose | IC50 (ROCK1): […] | dose with decreased follicular development in ovaries ([13]; rats): 275 mg/kg/day | reversal of reproductive organ changes ([13]; recovery period, rats and dogs): partially or fully reversed | P-gp substrate (P-gp): substrate | genotoxicity, chromosome aberration [14]: […]
